We go through 18 molecules from patent US10640506B2, “Cyclobutyl substituted pyrrolopyridine and pyrrolopyrimidines derivatives as JAK inhibitors” (Incyte Corporation, priority 2010, dated 2020).

Counter-ions that a name gives are not always drawn. Like-named read-outs stand apart in the source and are kept apart here. Where only a bound is given, the exact number is not on record here.

In experiment [1] the target is human JAK1 (a.a. 837-1142) (Homo sapiens, UniProt P23458). The experiment can be described thus: In vitro JAK kinase assay (HTRF, phosphorylation of biotinylated peptide), JAK1. The experiment is classed as biochemical. As for the experimental part:
Compounds herein were tested for inhibitory activity of JAK targets according to the following in vitro assay described in Park et al., Analytical Biochemistry 1999, 269, 94-104. The catalytic domains of human JAK1 (a.a. 837-1142) and JAK2 (a.a. 828-1132) with an N-terminal His tag were expressed using baculovirus in insect cells and purified. The catalytic activity of JAK1 and JAK2 was assayed by measuring the phosphorylation of a biotinylated peptide. The phosphorylated peptide was detected by homogenous time resolved fluorescence (HTRF). […] Reactions were carried out at room temperature for 1 hour and then stopped with 20 μL 45 mM EDTA, 300 nM SA-APC, 6 nM Eu-Py20 in assay buffer (Perkin Elmer, Boston, Mass.). Binding to the Europium labeled antibody took place for 40 minutes and HTRF signal was measured on a Fusion plate reader (Perkin Elmer, Boston, Mass.). […] Data is indicated as ranges, wherein “+” is less than 10 nM; “++” is 10 nM to 25 nM; “+++” is greater than 25 nM to 100 nM; and “++++” is greater than 100 nM. Greater than 25 nM to 100 nM specifies a range with a lower endpoint “at greater than 25 nM” and an upper endpoint at 100 nM.
Background: TR-FRET usually uses a lanthanide donor and a delayed reading to cut background.

The target in a further experiment is T1, JAK2 (a.a. 828-1132) (Homo sapiens, UniProt O60674).
T1 construct: JAK2 (a.a. 828-1132); His tag (N)
In words: In vitro JAK kinase assay (HTRF, phosphorylation of biotinylated peptide), JAK2. The experiment is classed as biochemical. As for the experimental part:
Compounds herein were tested for inhibitory activity of JAK targets according to the following in vitro assay described in Park et al., Analytical Biochemistry 1999, 269, 94-104. The catalytic domains of human JAK1 (a.a. 837-1142) and JAK2 (a.a. 828-1132) with an N-terminal His tag were expressed using baculovirus in insect cells and purified. The catalytic activity of JAK1 and JAK2 was assayed by measuring the phosphorylation of a biotinylated peptide. The phosphorylated peptide was detected by homogenous time resolved fluorescence (HTRF). […] Reactions were carried out at room temperature for 1 hour and then stopped with 20 μL 45 mM EDTA, 300 nM SA-APC, 6 nM Eu-Py20 in assay buffer (Perkin Elmer, Boston, Mass.). Binding to the Europium labeled antibody took place for 40 minutes and HTRF signal was measured on a Fusion plate reader (Perkin Elmer, Boston, Mass.). See Tables A-F for data related to compounds of the Examples (at 1 mM). Data is indicated as ranges, wherein “+” is less than 10 nM; “++” is 10 nM to 25 nM; “+++” is greater than 25 nM to 100 nM; and “++++” is greater than 100 nM. Greater than 25 nM to 100 nM specifies a range with a lower endpoint “at greater than 25 nM” and an upper endpoint at 100 nM.

[2] abbreviates: Table B, 1 mM ATP, read-out: JAK1 IC50.
The mark [3] stands for this setting: Table B, 1 mM ATP, read-out: JAK2 IC50.
Setting [4] is: Table A, 1 mM ATP, read-out: JAK1 IC50.
[5] abbreviates: Table A, 1 mM ATP, read-out: JAK2 IC50.

Chain of human JAK1 (a.a. 837-1142) (P23458 849-1154): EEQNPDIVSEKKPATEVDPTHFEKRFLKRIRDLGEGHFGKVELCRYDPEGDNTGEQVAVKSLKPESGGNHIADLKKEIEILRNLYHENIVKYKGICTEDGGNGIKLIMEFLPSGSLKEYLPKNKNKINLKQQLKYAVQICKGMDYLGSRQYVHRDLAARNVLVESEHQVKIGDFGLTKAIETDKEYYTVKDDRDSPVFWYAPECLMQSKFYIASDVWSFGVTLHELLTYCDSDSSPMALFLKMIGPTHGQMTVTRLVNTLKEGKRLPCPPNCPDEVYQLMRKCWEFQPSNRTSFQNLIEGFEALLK
T1 sequence (O60674 828-1132): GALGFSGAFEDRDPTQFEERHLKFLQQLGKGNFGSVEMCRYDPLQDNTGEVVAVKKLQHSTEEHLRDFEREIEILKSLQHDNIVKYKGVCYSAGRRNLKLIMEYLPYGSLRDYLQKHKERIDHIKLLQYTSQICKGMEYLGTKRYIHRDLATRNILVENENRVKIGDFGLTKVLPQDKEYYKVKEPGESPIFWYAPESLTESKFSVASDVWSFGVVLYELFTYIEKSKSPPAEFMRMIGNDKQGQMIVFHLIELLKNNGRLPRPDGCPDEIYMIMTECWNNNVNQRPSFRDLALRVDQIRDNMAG

With `CN(C)Cc1cc(F)cc(OC2CCN(C3CC(CC#N)(n4cc(-c5ncnc6[nH]ccc56)cn4)C3)CC2)c1` (single isomer, unassigned; isomer 1) [Example 40, isomer 1, {cis-3-(4-{3-[(dimethylamino)methyl]-5-fluorophenoxy}piperidin-1-yl)-1-[4-(7H-pyrrolo[2,3-d]pyrimidin-4-yl)-1H-pyrazol-1-yl]cyclobutyl}acetonitrile], the IC50 (in general, the concentration that gives 50% inhibition) in experiment [1] (read-out: JAK1 IC50 (nM) at 1 mM, Table E, 1 mM ATP) was less than 10 nM; at JAK2 (a.a. 828-1132) (Table E, 1 mM ATP, listed as 40, isomer 1, read-out: JAK2 IC50 (nM) +), 10 to 25 nM.
Consider `CN(C)S(=O)(=O)N1CCN([C@H]2C[C@](CC#N)(n3cc(-c4ncnc5[nH]ccc45)cn3)C2)CC1` [Example 37, 4-{trans-3-(cyanomethyl)-3-[4-(7H-pyrrolo[2,3-d]pyrimidin-4-yl)-1H-pyrazol-1-yl]cyclobutyl}-N,N-dimethylpiperazine-1-sulfonamide], for which the IC50 (in experiment [1] (setting [2]); at JAK2 (a.a. 828-1132) (setting [3])) was less than 10 nM in each case.
`CN(C)Cc1cc(C(=O)N2CCN([C@H]3C[C@](CC#N)(n4cc(-c5ncnc6[nH]ccc56)cn4)C3)CC2)nc(C(F)(F)F)n1` [Example 52, {trans-3-(4-{[6-[(dimethylamino)methyl]-2-(trifluoromethyl)pyrimidin-4-yl]carbonyl}piperazin-1-yl)-1-[4-(7H-pyrrolo[2,3-d]pyrimidin-4-yl)-1H-pyrazol-1-yl]cyclobutyl}acetonitrile]: the IC50 was less than 10 nM in experiment [1] (Table F, 1 mM ATP) and 25 to 100 nM on JAK2 (a.a. 828-1132) (Table F, 1 mM ATP).
In the case of `N#CC[C@]1(n2cc(-c3ncnc4[nH]ccc34)cn2)C[C@@H](N2CCN(C(=O)c3cncc(C(F)(F)F)n3)CC2)C1` [Example 14a, [cis-1-[4-(7H-pyrrolo[2,3-d]pyrimidin-4-yl)-1H-pyrazol-1-yl]-3-(4-{[6-(trifluoromethyl)pyrazin-2-yl]carbonyl}piperazin-1-yl)cyclobutyl]acetonitrile], the IC50 in experiment [1] (setting [4]) was less than 10 nM; at JAK2 (a.a. 828-1132) (setting [5]), 25 to 100 nM.
Take `CC(C)(O)c1cc(OC2CCN([C@H]3C[C@](CC#N)(n4cc(-c5ncnc6[nH]ccc56)cn4)C3)CC2)nc(C(F)(F)F)c1` (single isomer, unassigned) [Example 125, {trans-3-(4-{[4-(1-hydroxy-1-methylethyl)-6-(trifluoromethyl)pyridin-2-yl]oxy}piperidin-1-yl)-1-[4-(7H-pyrrolo[2,3-d]pyrimidin-4-yl)-1H-pyrazol-1-yl]cyclobutyl}acetonitrile]: the IC50 in experiment [1] (Table F, 1 mM ATP) is less than 10 nM; against JAK2 (a.a. 828-1132) (Table F, 1 mM ATP), 25 to 100 nM.
The like results for `CC(C)NC(=O)N1CCN([C@H]2C[C@](CC#N)(n3cc(-c4ncnc5[nH]ccc45)cn3)C2)CC1` [Example 85, 4-{trans-3-(cyanomethyl)-3-[4-(7H-pyrrolo[2,3-d]pyrimidin-4-yl)-1H-pyrazol-1-yl]cyclobutyl}-N-isopropylpiperazine-1-carboxamide] were, in that order, less than 10 nM and 25 to 100 nM.
Consider `N#CC[C@]1(n2cc(-c3ncnc4[nH]ccc34)cn2)C[C@H](N2CCN(C(=O)Nc3ccc(F)cc3C(F)(F)F)CC2)C1` [Example 3b, 4-{3-(cyanomethyl)-3-[4-(7H-pyrrolo[2,3-d]pyrimidin-4-yl)-1H-pyrazol-1-yl]cyclobutyl}-N-[4-fluoro-2-(trifluoromethyl)phenyl]piperazine-1-carboxamide 2.3×(trifluoroacetate) Salt], for which the values for the IC50 (in experiment [1] (setting [2]); at JAK2 (a.a. 828-1132) (setting [3])) were 10 to 25 nM and greater than 100 nM, respectively.
For `CN(C)CCCN(C)C(=O)N1CCN([C@H]2C[C@](CC#N)(n3cc(-c4ncnc5[nH]ccc45)cn3)C2)CC1` [Example 82, 4-{trans-3-(cyanomethyl)-3-[4-(7H-pyrrolo[2,3-d]pyrimidin-4-yl)-1H-pyrazol-1-yl]cyclobutyl}-N-[3-(dimethylamino)propyl]-N-methylpiperazine-1-carboxamide], the IC50 is 10 to 25 nM in experiment [1] (Table F, 1 mM ATP) and greater than 100 nM against JAK2 (a.a. 828-1132) (Table F, 1 mM ATP).
For the molecule `CN(C(=O)N1CCN([C@H]2C[C@](CC#N)(n3cc(-c4ncnc5[nH]ccc45)cn3)C2)CC1)C1CC1` [Example 83, 4-{trans-3-(cyanomethyl)-3-[4-(7H-pyrrolo[2,3-d]pyrimidin-4-yl)-1H-pyrazol-1-yl]cyclobutyl}-N-cyclopropyl-N-methylpiperazine-1-carboxamide], the IC50 in experiment [1] (Table F, 1 mM ATP) was less than 10 nM; against JAK2 (a.a. 828-1132) (Table F, 1 mM ATP) it was 25 to 100 nM.
For the molecule `CN(C)Cc1cc(C#N)cc(OC2CCN([C@H]3C[C@](CC#N)(n4cc(-c5ncnc6[nH]ccc56)cn4)C3)CC2)c1` [Example 137, 3-[(1-{trans-3-(cyanomethyl)-3-[4-(7H-pyrrolo[2,3-d]pyrimidin-4-yl)-1H-pyrazol-1-yl]cyclobutyl}piperidin-4-yl)oxy]-5-[(dimethylamino)methyl]benzonitrile], the IC50 is 10 to 25 nM in experiment [1] (Table F, 1 mM ATP) and greater than 100 nM against JAK2 (a.a. 828-1132) (Table F, 1 mM ATP).
The like results for `CCNC(=O)N1CCN([C@H]2C[C@](CC#N)(n3cc(-c4ncnc5[nH]ccc45)cn3)C2)CC1` [Example 81, 4-{trans-3-(cyanomethyl)-3-[4-(7H-pyrrolo[2,3-d]pyrimidin-4-yl)-1H-pyrazol-1-yl]cyclobutyl}-N-ethylpiperazine-1-carboxamide] were, in that order, less than 10 nM and 25 to 100 nM.
In the case of `N#CC[C@]1(n2cc(-c3ncnc4[nH]ccc34)cn2)C[C@@H](N2CCN(C(=O)c3cc(C4(N)CCC4)nc(C(F)(F)F)n3)CC2)C1` [Example 62, {cis-3-(4-{[6-(1-aminocyclobutyl)-2-(trifluoromethyl)pyrimidin-4-yl]carbonyl}piperazin-1-yl)-1-[4-(7H-pyrrolo[2,3-d]pyrimidin-4-yl)-1H-pyrazol-1-yl]cyclobutyl}acetonitrile], the IC50 is less than 10 nM in experiment [1] (Table F, 1 mM ATP) and less than 10 nM on JAK2 (a.a. 828-1132) (Table F, 1 mM ATP).
Turning to `N#CC[C@]1(n2cc(-c3ncnc4[nH]ccc34)cn2)C[C@H](N2CCN(C(=O)NC3CC3)CC2)C1` [Example 98, 4-{trans-3-(cyanomethyl)-3-[4-(7H-pyrrolo[2,3-d]pyrimidin-4-yl)-1H-pyrazol-1-yl]cyclobutyl}-N-cyclopropylpiperazine-1-carboxamide], the IC50 in experiment [1] (Table F, 1 mM ATP) is less than 10 nM; at JAK2 (a.a. 828-1132) (Table F, 1 mM ATP), greater than 100 nM.
In the same order, the values of `N#CC[C@]1(n2cc(-c3ncnc4[nH]ccc34)cn2)C[C@H](N2CCN(C(=O)N[C@H]3CCC[C@H]3O)CC2)C1` (single isomer, unassigned) [Example 89] are less than 10 nM and 25 to 100 nM.
On to `N#CC[C@]1(n2cc(-c3ncnc4[nH]ccc34)cn2)C[C@H](N2CCN(C(=O)c3cccc(C(F)(F)F)n3)CC2)C1` [Example 20b, {trans-1-[4-(7H-pyrrolo[2,3-d]pyrimidin-4-yl)-1H-pyrazol-1-yl]-3-(4-{[6-(trifluoromethyl)pyridin-2-yl]carbonyl}piperazin-1-yl)cyclobutyl}acetonitrile], for which the IC50 is less than 10 nM in experiment [1] (setting [2]) and 25 to 100 nM at JAK2 (a.a. 828-1132) (setting [3]).
`N#CC[C@]1(n2cc(-c3ncnc4[nH]ccc34)cn2)C[C@@H](N2CCN(Cc3cncc(F)c3)CC2)C1` [Example 23a, {cis-3-{4-[(5-fluoropyridin-3-yl)methyl]piperazin-1-yl}-1-[4-(7H-pyrrolo[2,3-d]pyrimidin-4-yl)-1H-pyrazol-1-yl]cyclobutyl}acetonitrile]: the IC50 is 10 to 25 nM in experiment [1] (setting [4]) and greater than 100 nM on JAK2 (a.a. 828-1132) (setting [5]).
Take `N#CCC1(n2cc(-c3ncnc4[nH]ccc34)cn2)CC(N2CCC(Oc3cc(CCO)nc(C(F)(F)F)n3)CC2)C1` (single isomer, unassigned; peak 1) [Example 164, peak 1, {trans-3-(4-{[6-(2-hydroxyethyl)-2-(trifluoromethyl)pyrimidin-4-yl]oxy}piperidin-1-yl)-1-[4-(7H-pyrrolo[2,3-d]pyrimidin-4-yl)-1H-pyrazol-1-yl]cyclobutyl}acetonitrile]: the IC50 is 10 to 25 nM in experiment [1] (read-out: JAK1 IC50 (nM) at 1 mM ATP, Table F, listed as 164, peak 1) and greater than 100 nM at JAK2 (a.a. 828-1132) (read-out: JAK2 IC50 (nM) at 1 mM ATP, Table F).
Regarding `N#CC[C@]1(n2cc(-c3ncnc4[nH]ccc34)cn2)C[C@H](N2CCN(C(=O)c3cccc(C(F)F)n3)CC2)C1` [Example 21b, {trans-3-(4-{[6-(difluoromethyl)pyridin-2-yl]carbonyl}piperazin-1-yl)-1-[4-(7H-pyrrolo[2,3-d]pyrimidin-4-yl)-1H-pyrazol-1-yl]cyclobutyl}acetonitrile], the half-maximal inhibitory concentration (IC50) in experiment [1] (setting [2]) is less than 10 nM; at JAK2 (a.a. 828-1132) (setting [3]) it was 10 to 25 nM.
